Key:
PDE4D3 = biological target: T1, PDE4D3 (Homo sapiens, UniProt Q08499); test: Inhibition of PDE4 activity, [3H]cAMP SPA enzyme assay with recombinant PDE4D3; assay type: biochemical; conditions: recombinant PDE4D3 from SF21 insect cells, 0.5 μM cAMP; for IC50: read-out: PDE4 −logIC50 (converted)
T1 construct: made in house; host or cells: SF21 insect cells (baculovirus, pBacPak9)
Excerpt: (§1) Method for Measuring Inhibition of PDE4 and PDE7 Activities
(§2) The cDNA for PDE7A1 (Genebank Acc. No. L12052) was isolated, using RT-PCR, from total cellular RNA derived from the T cell line CCRF-CEM and cloned into the cloning vector pCR2.1 (invitrogen, Groningen, NL) under standard conditions (the manufacturer's instructions). For expression in insect cells, the cDNA was subcloned into the baculo expression vector pCRBac (invitrogen, Groningen, NL). The cDNA for PDE4D3 was a gift of Marco Conti (Stanford University, USA). The ORF (Genebank Acc. No. U50159) was cut from the original pCMV5 vector with the restriction enzymes EcoRI and XbaI and subcloned in the expression vector pBacPak9 (Clontech, Palo Alto).
(§3) The recombinant baculoylrus was prepared by means of homologous recombination in SF9 insect cells. The expression plasmids were cotransfected with Bac-N-Blue (invitrogen, Groningen, NL) or Baculo-Gold DNA (Pharmingen, Hamburg) using a standard protocol (Pharmingen, Hamburg). Wt virus-free recombinant virus supernatants were selected using plaque assay methods. After that, high-titre virus supernatants were prepared by amplifying 3 times. PDEs were expressed in SF21 cells by infecting 2×10^6 cells/ml with an MOI (multiplicity of infection) between 2 and 5 in serum-free SF900 medium (Life Technologies, Paisley, UK). The cells were cultured at 28° C. for 48 hours, after which they were pelleted for 5–10 min at 1000 g and 4° C. In the case of PDE7A1 cells were cultured in spinner flasks at a rotational speed of 75 rpm.
(§4) The SF21 insect cells were resuspended, at a concentration of approx. 10^7 cells/ml, in ice-cold (4° C.) homogenization buffer (20 mM Tris, pH 8.2, containing the following additions: 140 mM NaCl, 3.8 mM KCl, 1 mM EGTA, 1 mM MgCl2, 1 mM β-mercaptoethanol, 2 mM benzamidine, 0.4 mM Pefablock, 10 μM leupeptin, 10 μM pepstatin A, 5 μM trypsin inhibitor) and disrupted by ultrasonication. The homogenate was then centrifuged for 10 min at 1000×g and the supernatant was stored at −80° C. until subsequent use (see below). The protein content was determined by the Bradford method (BioRad, Munich) using BSA as the standard.
(§5) PDE7A1 and PDE4D3 activities were inhibited by the said compounds in a modified SPA (scintillation proximity assay) test, supplied by Amersham Pharmacia Biotech (see procedural instructions “phosphodiesterase [3H]cAMP SPA enzyme assay, code TRKQ 7090”), carried out in 96-well microtitre plates (MTP's). The test volume is 100 μl and contains 20 mM Tris buffer (pH 7.4), 0.1 mg of BSA (bovine serum albumin)/ml, 5 mM Mg^2+, 0.5 μM cAMP (including about 50,000 cpm of [3H]cAMP), 2 μl of the respective substance dilution in DMSO and sufficient recombinant PDE (1000×g supernatant, see above) to ensure that 15–20% of the cAMP is converted under the said experimental conditions. After a preincubation of 5 min at 37° C., the reaction is started by adding the substrate (cAMP) and the assays are incubated for a further 15 min; after that, they are stopped by adding SPA beads (50 μl). In accordance with the manufacturer's instructions, the SPA beads had preylously been resuspended in water and then diluted 1:3 (v/v); the diluted solution also contains 3 mM IBMX. After the beads have been sedimented (>30 min), the MTP's are analyzed in commercially available measuring appliances and the corresponding IC50 values of the compounds for the inhibition of PDE activities are determined from the concentration-effect curves by means of non-linear regression.

PDE7A1 = biological target: T2, PDE7A1 (Homo sapiens, UniProt Q13946); test: Inhibition of PDE7 activity, [3H]cAMP SPA enzyme assay with recombinant PDE7A1; assay type: biochemical; conditions: recombinant PDE7A1 from SF21 insect cells, 0.5 μM cAMP; for IC50: read-out: PDE7 −logIC50 (converted)
T2 construct: made in house; host or cells: SF21 insect cells (baculovirus, pCRBac)
T2 sequence (Q13946 whole entry): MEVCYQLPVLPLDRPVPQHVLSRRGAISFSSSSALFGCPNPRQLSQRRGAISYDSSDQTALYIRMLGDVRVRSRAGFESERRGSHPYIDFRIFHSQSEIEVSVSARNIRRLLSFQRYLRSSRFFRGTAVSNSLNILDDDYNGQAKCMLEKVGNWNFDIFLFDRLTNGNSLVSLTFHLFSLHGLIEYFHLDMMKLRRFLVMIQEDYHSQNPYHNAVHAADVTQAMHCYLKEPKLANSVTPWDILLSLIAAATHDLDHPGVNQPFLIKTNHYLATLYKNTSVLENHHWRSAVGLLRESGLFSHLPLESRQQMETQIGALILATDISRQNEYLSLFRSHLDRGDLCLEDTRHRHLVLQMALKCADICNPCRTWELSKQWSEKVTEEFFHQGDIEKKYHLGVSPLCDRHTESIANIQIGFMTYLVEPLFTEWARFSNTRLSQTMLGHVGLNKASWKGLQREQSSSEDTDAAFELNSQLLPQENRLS
Excerpt: as §1, §2, §3, §4, §5

T1 sequence (Q08499 1-673 isoform Q08499-2): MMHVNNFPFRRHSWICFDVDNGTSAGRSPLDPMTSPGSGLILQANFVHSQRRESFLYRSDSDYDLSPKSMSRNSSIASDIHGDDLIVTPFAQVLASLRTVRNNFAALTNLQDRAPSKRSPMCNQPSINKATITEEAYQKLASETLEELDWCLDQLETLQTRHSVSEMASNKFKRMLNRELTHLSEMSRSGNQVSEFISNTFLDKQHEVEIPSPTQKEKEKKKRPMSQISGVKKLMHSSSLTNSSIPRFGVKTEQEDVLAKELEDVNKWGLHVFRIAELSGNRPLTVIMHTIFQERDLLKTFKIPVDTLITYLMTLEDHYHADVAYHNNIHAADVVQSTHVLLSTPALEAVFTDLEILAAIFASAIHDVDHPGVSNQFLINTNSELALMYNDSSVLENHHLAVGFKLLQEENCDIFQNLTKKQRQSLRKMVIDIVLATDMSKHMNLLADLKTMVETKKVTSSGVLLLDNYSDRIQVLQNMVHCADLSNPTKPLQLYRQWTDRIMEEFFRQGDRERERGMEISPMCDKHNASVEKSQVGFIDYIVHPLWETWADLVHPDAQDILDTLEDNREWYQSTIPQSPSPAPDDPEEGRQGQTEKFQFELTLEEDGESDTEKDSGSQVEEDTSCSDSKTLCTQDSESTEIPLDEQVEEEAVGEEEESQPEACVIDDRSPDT

IC50 (PDE4D3) | IC50 (PDE7A1) | melting point | PDE4 −logIC50 (mol/l) (PDE4D3) | PDE7 −logIC50 (mol/l) (PDE7A1) | Compound
0.00229 µM | 0.0229 µM | – | – | – | COc1ccc(C2=NN(C3CCN(C(=O)N4CCOCC4)CC3)C(=O)[C@H]3CC=CC[C@@H]23)cc1Cl (relative stereo) [Compound 1, (cis)-4-(3-Chloro-4-methoxy-phenyl)-2-[1-(1-morpholin-4-yl-methanoyl)-piperidin-4-yl]-4a,5,8,8a-tetrahydro-2H-phthalazin-1-one]
0.00398 µM | 0.107 µM | 198 to 199 °C | – | – | COc1ccc(C2=NN(C3CCN(S(=O)(=O)c4ccc(C)cc4)CC3)C(=O)[C@H]3CC=CC[C@@H]23)cc1Cl (relative stereo) [Compound 2, (cis)-4-(3-Chloro-4-methoxy-phenyl)-2-[1-(toluene-4-sulfonyl)-piperidin-4-yl]-4a,5,8,8a-tetrahydro-2H-phthalazin-1-one]
0.00562 µM | 0.182 µM | 206 to 208 °C | – | – | COc1ccc(C2=NN(C3CCN(C(C)=O)CC3)C(=O)[C@@H]3CC=CC[C@H]23)cc1Cl (relative stereo) [Compound 3, (cis)-2-(1-Acetyl-piperidin-4-yl)-4-(3-chloro-4-methoxy-phenyl)-4a,5.8,8a-tetrahydro-2H-phthalazin-1-one]
0.00245 µM | 0.0417 µM | 244 °C (dec.) | – | – | COc1ccc(C2=NN(C3CCN(Cc4ccncc4)CC3)C(=O)[C@H]3CC=CC[C@@H]23)cc1Cl.Cl (relative stereo) [Compound 4, (cis)-4-(3-Chloro-4-methoxy-phenyl)-2-(1-pyridin-4-ylmethyl-piperidin-4-yl)-4a,5,8,8a-tetrahydro-2H-phthalazin-1-one hydrochloride]
0.0138 µM | 0.0661 µM | 198 to 201 °C | – | – | COc1ccc(C2=NN(c3ccc(C(=O)N4CCN(CCN(C)C)CC4)cc3)C(=O)[C@H]3CC=CC[C@@H]23)cc1Cl.Cl.Cl (relative stereo) [Compound 5, (cis)-4-(3-Chloro-4-methoxy-phenyl)-2-(4-{1-[4-(2-dimethylamino-ethyl)-piperazin-1-yl]-methanoyl}-phenyl)-4a,5,8,8a-tetrahydro-2H-phthalazin-1-one dihydrochloride]
– | – | – | 7.64 | 7.08 | COc1ccc(C2=NN(c3nc(C)ccc3C(F)(F)F)C(=O)[C@H]3CC=CC[C@@H]23)cc1Cl (relative stereo) [Compound 6]
0.00813 µM | 0.105 µM | 156 to 157 °C | – | – | COc1ccc(C2=NN(c3ccc4ncsc4c3)C(=O)[C@@H]3CC=CC[C@H]23)cc1Cl (relative stereo) [Compound 7, (cis)-2-Benzothiazol-6-yl-4-(3-chloro-4-methoxy-phenyl)-4a,8,8a-tetrahydro-2H-phthalazin-1-one]
0.00891 µM | 0.0891 µM | 212 to 213 °C | – | – | COc1ccc(C2=NN(c3ccc4c(c3)COC4=O)C(=O)[C@H]3CC=CC[C@@H]23)cc1Cl (relative stereo) [Compound 8, (cis)-4-(3-Chloro-4-methoxy-phenyl)-2-(1-oxo-1,3-dihydro-isobenzofuran-5-yl)-4a,5,8,8a-tetrahydro-2H-phthalazin-1-one]
0.00257 µM | 0.0288 µM | 196 to 197 °C | – | – | COc1ccc(C2=NN(c3ccc4[nH]ncc4c3)C(=O)[C@H]3CC=CC[C@@H]23)cc1Cl.Cl (relative stereo) [Compound 9, (cis)-4-(3-Chloro-4-methoxy-phenyl)-2-(1H-indazol-5-yl)-4a,5,8,8a-tetrahydro-2H-phthalazin-1-one hydrochloride]
0.000776 µM | 0.0186 µM | – | – | – | COc1ccc(C2=NN(C3CCCC3)C(=O)[C@H]3CC=CC[C@@H]23)cc1Cl (relative stereo) [Compound 10, (cis)-4-(3Chloro-4-methoxy-phenyl)-2-cyclopentyl-4a,5,8,8a-tetrahydro-2H-phthalazin-1-one]
0.000891 µM | 0.269 µM | 217 to 219 °C | – | – | COc1ccc(C2=NN(CCCCn3ccnc3)C(=O)[C@H]3CC=CC[C@@H]23)cc1Cl.Cl (relative stereo) [Compound 11, (cis)-4-(3-Chloro-4-methoxy-phenyl)-2-(4-imidazol-1-yl-butyl)-4a,5,8,8a-tetrahydro-2H-phthalazin-1-one hydrochloride]
0.0457 µM | 0.38 µM | 201 to 203 °C | – | – | COc1ccc(C2=NN(c3ccc(C(=O)O)cc3)C(=O)[C@H]3CC=CC[C@@H]23)cc1F (relative stereo) [Compound 13, (cis)-4-[4-(3-Fluoro-4-methoxy-phenyl)-1-oxo-4a,5,8,8a-tetrahydro-1H-phthalazin-2-yl]-benzoic acid]
– | – | 222 to 224 °C | – | – | COc1ccc(C2=NN(c3ccc(C(=O)O)cc3)C(=O)[C@H]3CC=CC[C@@H]23)cc1Cl (relative stereo) [Compound 14, (cis)-4-{4-(3-chloro-4-methoxyphenyl)-1-oxo-4a,5,8,8a-tetrahydro-1H-phthalazin-2-yl}-benzoic acid]
0.0219 µM | 0.0417 µM | – | – | – | COc1ccc(C2=NN(c3cc(C)c4c(C)nn(C)c4n3)C(=O)[C@H]3CC=CC[C@@H]23)cc1Cl (relative stereo) [Compound 17, (cis)-4-(3-Chloro-4-methoxy-phenyl)-2-(1,3,4-trimethyl-1H-pyrazolo[3,4-b]pyridin-6-yl)-4a,5,8,8a-tetrahydro-2H-phthalazin-1-one]
0.0234 µM | 0.0776 µM | – | – | – | COc1ccc(C2=NN(c3nc(-c4cccs4)ns3)C(=O)[C@H]3CC=CC[C@@H]23)cc1Cl (relative stereo) [Compound 18, (cis)-4-(3-Chloro-4-methoxy-phenyl)-2-(3-thiophen-2-yl-[1,2,4]thiadiazol-5-yl)-4a,5,8,8a-tetrahydro-2H-phthalazin-1-one]
– | – | 216 to 218 °C | – | – | COc1ccc(C2=NN(C3CCN(C(=O)N4CCNC4=O)CC3)C(=O)[C@H]3CC=CC[C@@H]23)cc1Cl (relative stereo) [Compound 22, cis-4-(3-Chloro-4-methoxy-phenyl)-2-{1-[1-(2-oxo-imidazolidin-1-yl)-methanoyl]-piperidin-4-yl}-4a,5,8,8a-tetrahydro-2H-phthalazin-1-one]

Compound | IC50 (PDE4D3) | IC50 (PDE7A1) | melting point | PDE4 −logIC50 (mol/l) (PDE4D3) | PDE7 −logIC50 (mol/l) (PDE7A1)
COc1ccc(C2=NN(CCCCOc3ccc(C(=O)O)cc3)C(=O)[C@H]3CC=CC[C@@H]23)cc1Cl (relative stereo) [Compound 12, (cis)-4-{4-[4-(3-Chloro-4-methoxy-phenyl)-1-oxo-4a,5,8,8a-tetrahydro-1H-phthalazin-2-yl]-butoxy}benzoic acid] | 0.00646 µM | 0.0977 µM | 169 to 171 °C | – | –
